According to patent US11351178B2, “Selective HDAC6 inhibitors” (ITALFARMACO S.P.A., priority 2017, dated 2022):
Where two headings read alike, the source gives them in different places.

Key:
[1] = Stability to Phase I metabolism in rat S9 liver fraction; type: in vitro ADME; settings: after 90 min, 37° C.
Summary of the method: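 Compounds were incubated with rat or human liver S9 fraction at 37 °C for up to 90 min. Reactions were quenched on ice with acidified acetonitrile and analysed by HPLC-UV or LC-MS/MS. Percent remaining versus time zero and intrinsic clearance were calculated.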

Stability in rat plasma = type: in vitro ADME; settings: after 4 hours, 37° C.
Summary of the method: (§1)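 Compounds incubated at 37° C in rat or human plasma at 50 μM (UV/HPLC) or 1 or 2 μM (LC-MS/MS) for 0–4 h. Reaction stopped with acidified acetonitrile on ice; percent remaining versus initial amount and plasma half-life calculated.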

HDAC1 = target: T1, HDAC1 (Homo sapiens, UniProt Q13547); assay: Enzymatic test HDAC1; type: biochemical; settings: Table 3
T1 construct: purchased BPS 50051

recombinant human HDAC6 = target: T2, recombinant human HDAC6 (Homo sapiens, UniProt Q9UBN7); assay: Enzymatic screening on recombinant human HDAC6; type: biochemical; settings: read-out: HDAC6 IC50
T2 sequence (Q9UBN7 1-1215): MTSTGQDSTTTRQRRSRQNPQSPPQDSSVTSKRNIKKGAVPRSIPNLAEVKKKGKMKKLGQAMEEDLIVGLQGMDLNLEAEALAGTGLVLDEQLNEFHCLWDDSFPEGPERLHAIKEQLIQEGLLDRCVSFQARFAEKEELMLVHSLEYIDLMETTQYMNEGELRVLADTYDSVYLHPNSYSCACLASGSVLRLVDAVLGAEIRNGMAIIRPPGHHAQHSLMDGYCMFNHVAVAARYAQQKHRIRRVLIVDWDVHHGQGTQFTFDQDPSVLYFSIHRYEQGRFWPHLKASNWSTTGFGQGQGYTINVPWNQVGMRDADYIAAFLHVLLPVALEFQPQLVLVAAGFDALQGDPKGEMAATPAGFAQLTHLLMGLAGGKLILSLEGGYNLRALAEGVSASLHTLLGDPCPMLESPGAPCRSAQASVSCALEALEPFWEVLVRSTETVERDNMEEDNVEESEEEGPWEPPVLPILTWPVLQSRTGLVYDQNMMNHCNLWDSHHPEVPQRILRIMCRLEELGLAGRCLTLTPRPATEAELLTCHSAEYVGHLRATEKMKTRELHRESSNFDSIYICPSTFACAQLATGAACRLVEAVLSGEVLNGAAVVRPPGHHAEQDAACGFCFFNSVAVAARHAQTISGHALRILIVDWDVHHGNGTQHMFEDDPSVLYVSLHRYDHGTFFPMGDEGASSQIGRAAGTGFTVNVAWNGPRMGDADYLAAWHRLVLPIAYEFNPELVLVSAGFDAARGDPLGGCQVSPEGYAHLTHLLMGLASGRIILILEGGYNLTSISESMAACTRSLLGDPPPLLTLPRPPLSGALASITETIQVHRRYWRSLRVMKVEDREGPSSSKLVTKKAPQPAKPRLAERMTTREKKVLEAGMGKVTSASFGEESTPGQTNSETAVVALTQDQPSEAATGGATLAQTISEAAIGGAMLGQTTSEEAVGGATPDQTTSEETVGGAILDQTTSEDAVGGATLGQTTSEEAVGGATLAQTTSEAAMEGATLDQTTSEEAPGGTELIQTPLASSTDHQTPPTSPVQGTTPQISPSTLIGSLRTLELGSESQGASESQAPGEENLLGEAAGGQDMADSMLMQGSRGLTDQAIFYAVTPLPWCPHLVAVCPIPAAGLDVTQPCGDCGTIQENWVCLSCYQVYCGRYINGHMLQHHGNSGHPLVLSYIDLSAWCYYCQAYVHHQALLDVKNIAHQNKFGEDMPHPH
Summary of the method: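 Recombinant human HDAC isoforms were incubated with compound at 30 °C for isoform-specific times. Fluor de Lys, Fluor de Lys-Green or trifluoroacetyl-lysine substrate in Tris-HCl pH 8 buffer with NaCl, Tween-20 and glycerol was then added, followed by reaction at 30 °C.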

HDAC7 = target: T3, HDAC7 (Homo sapiens, UniProt Q8WUI4); assay: Enzymatic test HDAC7; type: biochemical; settings: Table 3
T3 construct: purchased BPS 50007
T3 sequence (Q8WUI4 518-952 limits assumed): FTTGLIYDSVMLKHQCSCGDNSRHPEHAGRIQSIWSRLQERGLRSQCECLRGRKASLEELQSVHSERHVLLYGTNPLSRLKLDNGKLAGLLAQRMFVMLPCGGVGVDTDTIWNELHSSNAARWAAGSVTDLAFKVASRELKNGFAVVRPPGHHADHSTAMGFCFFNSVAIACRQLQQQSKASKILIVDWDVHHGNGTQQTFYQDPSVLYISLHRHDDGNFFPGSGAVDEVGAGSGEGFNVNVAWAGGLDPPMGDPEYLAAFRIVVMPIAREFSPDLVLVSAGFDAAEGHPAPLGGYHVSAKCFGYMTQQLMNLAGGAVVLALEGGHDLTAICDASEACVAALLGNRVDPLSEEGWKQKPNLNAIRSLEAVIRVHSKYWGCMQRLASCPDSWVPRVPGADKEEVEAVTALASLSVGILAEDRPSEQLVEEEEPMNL
Protocol: (§2) After a period of incubation at 30° C. (incubation times vary for different isoforms and are shown in table 1) 25 μL of solution containing the substrate were added. As substrate, FLUOR DE LYS® deacetylase substrate (Enzo Life Sciences, cat #BML-K1104, FdL), FLUOR DE LYS®-Green substrate (Enzo Life Sciences, cat #BML-K1572 FdL_G) and trifluoroacetyl-L-lysine (Tfal)-2× concentrated solution in 25 mM Tris-HCl, pH 8, 130 mM NaCl 0.05% Tween-20 10% glycerol) were used. Following a reaction period at 30° C.

HDAC5 = target: T4, HDAC5 (Homo sapiens, UniProt Q9UQL6); assay: Enzymatic test HDAC5; type: biochemical; settings: Table 3
T4 construct: purchased BPS 50005
Protocol: as §2

[2] = Stability in human plasma; type: in vitro ADME; settings: after 4 hours, 37° C.
Summary of the method: as §1

T4 sequence (Q9UQL6 656-1122 limits assumed): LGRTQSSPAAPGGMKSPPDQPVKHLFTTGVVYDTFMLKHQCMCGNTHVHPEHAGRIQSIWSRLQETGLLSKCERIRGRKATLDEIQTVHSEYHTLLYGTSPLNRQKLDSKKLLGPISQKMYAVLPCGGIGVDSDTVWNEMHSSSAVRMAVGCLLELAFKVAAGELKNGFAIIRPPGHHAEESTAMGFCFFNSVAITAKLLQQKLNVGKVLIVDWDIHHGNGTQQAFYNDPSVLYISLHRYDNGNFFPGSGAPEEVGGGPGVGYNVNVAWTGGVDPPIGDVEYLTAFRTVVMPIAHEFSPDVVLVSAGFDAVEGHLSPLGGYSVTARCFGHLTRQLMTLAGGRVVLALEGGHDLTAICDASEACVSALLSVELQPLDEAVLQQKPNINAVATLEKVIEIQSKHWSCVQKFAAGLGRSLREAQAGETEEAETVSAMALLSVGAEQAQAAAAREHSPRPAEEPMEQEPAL
T1 sequence (Q13547 whole entry): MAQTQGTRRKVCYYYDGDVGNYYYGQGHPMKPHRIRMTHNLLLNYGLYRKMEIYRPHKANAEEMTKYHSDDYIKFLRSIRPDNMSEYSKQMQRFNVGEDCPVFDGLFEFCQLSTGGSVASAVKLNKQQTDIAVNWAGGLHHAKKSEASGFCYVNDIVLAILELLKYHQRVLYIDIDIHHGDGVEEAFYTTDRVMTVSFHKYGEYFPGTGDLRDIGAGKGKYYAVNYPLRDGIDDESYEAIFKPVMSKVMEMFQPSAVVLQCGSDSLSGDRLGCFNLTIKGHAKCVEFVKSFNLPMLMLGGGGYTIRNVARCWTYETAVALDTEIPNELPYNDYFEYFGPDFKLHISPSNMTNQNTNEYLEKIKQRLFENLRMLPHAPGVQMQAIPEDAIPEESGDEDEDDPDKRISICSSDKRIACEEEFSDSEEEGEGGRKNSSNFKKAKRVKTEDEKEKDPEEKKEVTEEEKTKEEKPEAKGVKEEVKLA

SMILES: Cn1c(Sc2c(F)cc(C(=O)NO)cc2F)nnc1-c1cccc2ccccc12 [comp. 2, 3,5-difluoro-N-hydroxy-4-((4-methyl-5-(naphthalen-1-yl)-4H-1,2,4-triazol-3-yl)thio)benzamide]
- residual percentage in rat S9 fraction [1]: 1%
- residual percentage in rat plasma (Stability in rat plasma): 79%
- IC50 (HDAC1): 11600 nM
- IC50 (recombinant human HDAC6; Table 2): 16 nM
- IC50 (recombinant human HDAC6; Table 3): 16 nM
- IC50 (HDAC7): 1090 nM
- IC50 (HDAC5): 1850 nM
- residual percentage in human plasma [2]: 71%

SMILES: O=C(NO)c1cc(F)c(Cn2nnc(-c3ccco3)n2)c(F)c1 [comp. 19, 3,5-difluoro-4-((5-(furan-2-yl)-2H-tetrazol-2-yl)methyl)-N-hydroxybenzamide]
- residual percentage in rat S9 fraction [1]: 68%
- residual percentage in rat plasma (Stability in rat plasma): 96%
- IC50 (HDAC1): 2520 nM
- IC50 (recombinant human HDAC6; Table 2): 4 nM
- IC50 (recombinant human HDAC6; Table 3): 4 nM
- IC50 (HDAC7): 1020 nM
- IC50 (HDAC5): 597 nM
- residual percentage in human plasma [2]: 100%

SMILES: COc1ccc(C(=O)N[C@@H](Cc2cscn2)c2nc(Cc3ccc(C(=O)NO)cc3)no2)cc1OC [comp. 1, (S)—N-(1-(3-(4-(hydroxycarbamoyl)benzyl)-1,2,4-oxadiazol-5-yl)-2-(thiazol-4-yl)ethyl)-3,4-dimethoxybenzamide]
- residual percentage in rat S9 fraction [1]: 70%
- residual percentage in rat plasma (Stability in rat plasma): 86%
- IC50 (HDAC1): 1930 nM
- IC50 (recombinant human HDAC6; Table 2): 81 nM
- IC50 (recombinant human HDAC6; Table 3): 81 nM
- IC50 (HDAC7): 3530 nM
- IC50 (HDAC5): 12000 nM
- residual percentage in human plasma [2]: 102%

SMILES: Cn1c(Sc2c(F)cc(C(=O)NO)cc2F)nnc1-c1cccs1 [comp. 17, 3,5-difluoro-N-hydroxy-4-((4-methyl-5-(thiophen-2-yl)-4H-1,2,4-triazol-3-yl)thio)benzamide]
- residual percentage in rat S9 fraction [1]: 71%
- residual percentage in rat plasma (Stability in rat plasma): 87%
- IC50 (HDAC1): 3990 nM
- IC50 (recombinant human HDAC6; Table 2): 9 nM
- IC50 (recombinant human HDAC6; Table 3): 9 nM
- IC50 (HDAC7): 550 nM
- IC50 (HDAC5): 1540 nM
- residual percentage in human plasma [2]: 98%

SMILES: Cn1c(Sc2ccc(C(=O)NO)cc2)nnc1-c1cccs1 [comp. 10, N-hydroxy-4-((4-methyl-5-(thiophen-2-yl)-4H-1,2,4-triazol-3-yl)thio)benzamide]
- residual percentage in rat S9 fraction [1]: 82%
- residual percentage in rat plasma (Stability in rat plasma): 86%
- IC50 (HDAC1): 1020 nM
- IC50 (recombinant human HDAC6; Table 2): 8 nM
- IC50 (recombinant human HDAC6; Table 3): 9 nM
- IC50 (HDAC7): 817 nM
- IC50 (HDAC5): 2680 nM
- residual percentage in human plasma [2]: 99%

SMILES: O=C(NO)c1cc(F)c(Cn2nnc(-c3ccccn3)n2)c(F)c1 [comp. 6, 3,5-difluoro-N-hydroxy-4-((5-(pyridin-2-yl)-2H-tetrazol-2-yl)methyl)benzamide]
- residual percentage in rat S9 fraction [1]: 96.6%
- residual percentage in rat plasma (Stability in rat plasma): 87%
- IC50 (HDAC1): 7510 nM
- IC50 (recombinant human HDAC6; Table 2): 7 nM
- IC50 (recombinant human HDAC6; Table 3): 7 nM
- IC50 (HDAC7): 750 nM
- IC50 (HDAC5): 1050 nM
- residual percentage in human plasma [2]: 96%
